Tests used:
USP46/UAF1 = USP46/UAF1 (Homo sapiens, UniProt P62068); test: K63-linked diubiquitin cleavage assay, USP46/UAF1; format: biochemical; details: for IC50 USP46/UAF1: K63-linked diubiquitin substrate, NI = no significant inhibition at 114 μM
caspase-3 = target: T1, caspase-3 (Homo sapiens, UniProt P42574); test: cysteine protease selectivity, caspase-3; format: biochemical
T1 sequence (P42574 29-175 limits assumed): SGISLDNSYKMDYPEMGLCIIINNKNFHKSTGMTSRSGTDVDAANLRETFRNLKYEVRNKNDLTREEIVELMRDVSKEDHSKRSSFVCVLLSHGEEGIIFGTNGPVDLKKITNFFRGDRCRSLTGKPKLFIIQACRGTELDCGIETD
T1 sequence (P42574 176-277 limits assumed): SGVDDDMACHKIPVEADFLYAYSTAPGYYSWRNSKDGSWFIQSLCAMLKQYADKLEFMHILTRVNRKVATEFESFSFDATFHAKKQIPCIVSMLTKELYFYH

USP2 = target: T2, USP2 (Homo sapiens, UniProt O75604); test: K63-linked diubiquitin cleavage assay, USP2; details: for IC50 USP2: NI = no significant inhibition at 114 μM
T2 sequence (O75604 1-605): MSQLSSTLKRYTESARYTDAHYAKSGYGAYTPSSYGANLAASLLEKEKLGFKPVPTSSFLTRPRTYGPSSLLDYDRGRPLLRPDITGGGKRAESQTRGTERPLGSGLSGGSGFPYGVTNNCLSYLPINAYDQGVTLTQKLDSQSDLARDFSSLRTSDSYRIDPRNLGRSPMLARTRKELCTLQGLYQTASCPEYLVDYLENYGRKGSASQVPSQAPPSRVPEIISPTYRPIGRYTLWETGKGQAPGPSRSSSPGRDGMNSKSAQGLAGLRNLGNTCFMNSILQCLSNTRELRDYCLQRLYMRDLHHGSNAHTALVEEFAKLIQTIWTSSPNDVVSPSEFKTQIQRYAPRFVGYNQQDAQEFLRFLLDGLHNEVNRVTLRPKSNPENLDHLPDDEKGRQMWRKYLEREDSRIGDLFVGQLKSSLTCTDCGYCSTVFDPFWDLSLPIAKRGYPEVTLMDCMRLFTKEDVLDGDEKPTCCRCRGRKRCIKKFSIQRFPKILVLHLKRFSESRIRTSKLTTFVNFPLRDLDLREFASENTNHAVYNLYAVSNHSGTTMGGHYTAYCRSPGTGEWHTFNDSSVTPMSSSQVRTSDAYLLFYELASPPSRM

USP5 = target: T3, USP5 (Homo sapiens, UniProt P45974); test: K63-linked diubiquitin cleavage assay, USP5; details: K63-linked diubiquitin substrate; NI = no significant inhibition at 114 μM
T3 sequence (P45974 1-858): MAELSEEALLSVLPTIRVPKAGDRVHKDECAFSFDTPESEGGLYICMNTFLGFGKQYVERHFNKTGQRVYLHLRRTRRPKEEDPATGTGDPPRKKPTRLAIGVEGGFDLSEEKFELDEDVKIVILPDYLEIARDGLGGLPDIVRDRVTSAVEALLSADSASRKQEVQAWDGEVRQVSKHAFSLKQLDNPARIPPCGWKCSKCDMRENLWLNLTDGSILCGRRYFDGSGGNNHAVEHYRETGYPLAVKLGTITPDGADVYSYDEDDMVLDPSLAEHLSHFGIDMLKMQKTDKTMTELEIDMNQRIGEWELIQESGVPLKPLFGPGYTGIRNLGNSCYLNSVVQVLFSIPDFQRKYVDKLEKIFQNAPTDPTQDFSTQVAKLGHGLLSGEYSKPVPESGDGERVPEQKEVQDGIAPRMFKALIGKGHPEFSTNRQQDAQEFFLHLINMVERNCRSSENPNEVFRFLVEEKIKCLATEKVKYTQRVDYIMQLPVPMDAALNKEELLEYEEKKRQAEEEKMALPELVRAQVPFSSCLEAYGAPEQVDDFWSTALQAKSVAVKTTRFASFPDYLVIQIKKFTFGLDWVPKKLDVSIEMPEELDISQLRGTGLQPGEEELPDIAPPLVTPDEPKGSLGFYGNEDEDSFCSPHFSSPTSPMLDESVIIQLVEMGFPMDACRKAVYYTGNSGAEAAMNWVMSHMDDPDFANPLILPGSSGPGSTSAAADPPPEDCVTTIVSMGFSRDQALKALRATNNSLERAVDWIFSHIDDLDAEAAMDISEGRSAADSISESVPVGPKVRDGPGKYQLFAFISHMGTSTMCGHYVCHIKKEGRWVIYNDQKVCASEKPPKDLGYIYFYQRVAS

USP8 = target: T4, USP8 (Homo sapiens, UniProt P40818); test: K63-linked diubiquitin cleavage assay, USP8; details: for IC50 USP8: K63-linked diubiquitin substrate, NI = no significant inhibition at 114 μM
T4 sequence (P40818 1-1118): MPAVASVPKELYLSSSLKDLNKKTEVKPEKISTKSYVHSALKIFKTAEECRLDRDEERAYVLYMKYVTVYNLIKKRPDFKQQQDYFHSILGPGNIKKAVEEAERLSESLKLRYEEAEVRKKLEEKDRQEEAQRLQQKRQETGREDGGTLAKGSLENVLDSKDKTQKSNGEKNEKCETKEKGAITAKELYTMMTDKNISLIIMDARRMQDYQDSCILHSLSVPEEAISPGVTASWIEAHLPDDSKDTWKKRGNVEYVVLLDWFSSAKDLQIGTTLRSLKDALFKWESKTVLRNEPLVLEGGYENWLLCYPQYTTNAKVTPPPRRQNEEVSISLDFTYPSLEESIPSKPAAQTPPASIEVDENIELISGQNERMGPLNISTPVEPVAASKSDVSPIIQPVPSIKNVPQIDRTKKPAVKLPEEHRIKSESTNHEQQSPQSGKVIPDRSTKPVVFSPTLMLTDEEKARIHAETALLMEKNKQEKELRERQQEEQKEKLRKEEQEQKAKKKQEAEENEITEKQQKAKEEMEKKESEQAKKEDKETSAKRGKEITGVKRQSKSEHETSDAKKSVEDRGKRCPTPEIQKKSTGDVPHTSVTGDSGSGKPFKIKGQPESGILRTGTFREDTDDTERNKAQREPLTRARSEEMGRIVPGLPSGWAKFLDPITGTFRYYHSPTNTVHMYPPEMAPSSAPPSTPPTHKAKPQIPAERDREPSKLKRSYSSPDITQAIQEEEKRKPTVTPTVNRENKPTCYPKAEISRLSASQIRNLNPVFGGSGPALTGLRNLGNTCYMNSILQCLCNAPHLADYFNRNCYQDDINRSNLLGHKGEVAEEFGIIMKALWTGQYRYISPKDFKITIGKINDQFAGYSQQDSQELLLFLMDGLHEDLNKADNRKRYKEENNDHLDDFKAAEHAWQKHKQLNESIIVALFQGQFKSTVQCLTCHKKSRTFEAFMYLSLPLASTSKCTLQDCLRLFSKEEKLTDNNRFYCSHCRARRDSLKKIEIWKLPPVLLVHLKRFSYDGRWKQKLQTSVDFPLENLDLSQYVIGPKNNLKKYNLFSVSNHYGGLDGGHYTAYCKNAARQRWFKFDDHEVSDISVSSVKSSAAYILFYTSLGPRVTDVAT

[1] = K63-linked diubiquitin substrate

Chain of USP46/UAF1 (P62068 whole entry): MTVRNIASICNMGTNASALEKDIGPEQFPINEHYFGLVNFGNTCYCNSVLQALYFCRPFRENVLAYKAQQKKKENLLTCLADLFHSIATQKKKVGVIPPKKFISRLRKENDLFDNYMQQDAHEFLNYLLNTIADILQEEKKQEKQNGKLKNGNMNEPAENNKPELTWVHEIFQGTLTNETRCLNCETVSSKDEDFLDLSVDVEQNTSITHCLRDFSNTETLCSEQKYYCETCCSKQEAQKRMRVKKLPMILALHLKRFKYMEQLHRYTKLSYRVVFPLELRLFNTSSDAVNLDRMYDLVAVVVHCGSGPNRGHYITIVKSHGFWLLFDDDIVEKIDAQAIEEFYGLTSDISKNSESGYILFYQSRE
Chain of USP46/UAF1 (Q8TAF3 whole entry partner): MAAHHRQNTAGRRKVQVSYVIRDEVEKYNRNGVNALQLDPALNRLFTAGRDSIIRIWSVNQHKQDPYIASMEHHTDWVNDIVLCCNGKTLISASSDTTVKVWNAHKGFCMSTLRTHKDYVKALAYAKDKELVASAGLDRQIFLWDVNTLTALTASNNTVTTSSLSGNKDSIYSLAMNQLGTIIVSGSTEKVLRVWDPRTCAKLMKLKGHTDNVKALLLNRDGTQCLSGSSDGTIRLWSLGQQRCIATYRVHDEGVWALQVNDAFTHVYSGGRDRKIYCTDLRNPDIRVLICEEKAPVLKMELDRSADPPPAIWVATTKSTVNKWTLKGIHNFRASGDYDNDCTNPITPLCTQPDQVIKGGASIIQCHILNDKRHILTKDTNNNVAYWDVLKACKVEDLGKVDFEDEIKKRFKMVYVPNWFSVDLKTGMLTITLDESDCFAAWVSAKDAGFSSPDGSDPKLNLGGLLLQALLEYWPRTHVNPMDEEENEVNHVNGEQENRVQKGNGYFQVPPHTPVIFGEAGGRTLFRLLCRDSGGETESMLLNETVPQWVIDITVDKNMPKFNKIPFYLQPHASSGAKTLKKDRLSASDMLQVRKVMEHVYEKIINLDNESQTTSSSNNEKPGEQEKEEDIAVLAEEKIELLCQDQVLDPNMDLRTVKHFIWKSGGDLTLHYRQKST

SMILES | IC50 USP46/UAF1 (USP46/UAF1) | IC50 (caspase-3) [µM] | IC50 USP2 (USP2; [1]) | IC50 USP5 (USP5) | IC50 (USP8) [µM] | IC50 USP8 (USP8) | IC50 (USP46/UAF1) [µM] | IC50 (USP2) [µM] | IC50 for USP2, fold higher than that for USP1/UAF1 (USP2; [1])
CN1CCN(CCCN2c3ccccc3Sc3ccc(C(F)(F)F)cc32)CC1 [Trifluoperazine, trifluoperazine] | did not inhibit | > 250 | no inhibition | no inhibition |  |  |  |  | 
OCCN1CCN(CCC=C2c3ccccc3Sc3ccc(C(F)(F)F)cc32)CC1 [Flupenthixol, flupenthixol] | did not inhibit | > 250 | no inhibition | no inhibition | > 114 |  |  |  | 
O=c1[nH]c2ccccc2n1C1CCN(CCCC(c2ccc(F)cc2)c2ccc(F)cc2)CC1 [Pimozide, pimozide] | did not inhibit | > 250 | No inhibition | No inhibition |  | No inhibition |  |  | 
CC(C)(Sc1ccc(CCN(CCCCC2CCCCC2)C(=O)NC2CCCCC2)cc1)C(=O)O [GW7647] |  | > 250 |  | did not inhibit |  | did not inhibit | 12 ± 1 | > 114 | more than 23 fold

Reference: paper PMC3344384 (Chemistry & biology, 2011)
